Results published in US20210300921A1, “EP4 INHIBITORS AND SYNTHESIS THEREOF” (Arrys Therapeutics, Inc., priority 2018, published 2021).

Columns and labels:
Format in all cases: in vivo, BALB/c mice
[1] = system: CT-26 mouse colon adenocarcinoma model; assay: Antitumor activity in the CT-26 mouse colon adenocarcinoma model, Compound X with or without anti-PD-1 (10 mice per cohort); conditions: for tumor growth kinetics during the treatment period: versus single agent anti-PD-1; for tumor growth kinetics during the period of dosing: versus vehicle
Experimental: (§1) The antitumor activity of Compound X as a single agent and combined with a mouse anti-PD-1 antibody was evaluated in the CT-26 mouse colon adenocarcinoma model grown in BALB/c mice. Mice were inoculated subcutaneously in the right flank with 5×10^5 tumor cells. When tumors reached an average size of 71 mm^3 (6 days after tumor cell inoculation) dosing was initiated. The dosing regimens in the 8 separate cohorts comprising 10 mice each are as follows: […]

[2] = system: CT-26 mouse colon adenocarcinoma model; assay: Antitumor activity in the CT-26 mouse colon adenocarcinoma model, additional experiment (7 mice per cohort); conditions: FIG. 5
Experimental: as §1, with “mouse anti-PD1” for “mouse anti-PD-1”, “BALB/c mice in an additional experiment.” for “BALB/c mice.”, “of 91” for “of 71”, “mm^3” for “mm^3 (6 days after tumor cell inoculation)”, “the 4” for “the 8”, “comprising 7” for “comprising 10”

[3] = system: 4T1 mouse breast cancer model; assay: Antitumor activity in the 4T1 mouse breast cancer model, Compound X with or without anti-CTLA4; conditions: for tumor growth kinetics during the period of dosing: FIG. 3
Experimental: The antitumor activity of Compound X (the compound as described in Example 15, above) as a single agent and combined with a mouse anti-CTLA4 antibody was evaluated in the 4T1 mouse breast cancer model grown in BALB/c mice. Mice were inoculated subcutaneously in the right flank with 3×10^5 tumor cells. When tumors reached an average size of 100 mm^3 (7 days after tumor cell inoculation) dosing was initiated.

[4] = system: 4T1 mouse breast cancer model; assay: Antitumor activity in the 4T1 mouse breast cancer model, additional experiment with anti-PD1 (7 mice per cohort); conditions: FIG. 6
Experimental: The antitumor activity of Compound X as a single agent and combined with a mouse anti-PD1 antibody was evaluated in the 4T1 mouse breast cancer model grown in BALB/c mice in an additional experiment. Mice were inoculated subcutaneously in the right flank with 3×10^5 tumor cells. When tumors reached an average size of 97 mm^3 dosing was initiated. The dosing regimens in the 4 separate cohorts comprising 7 mice each are as follows: […]

[5] = system: CT-26 tumors; assay: Immune cell composition of CT-26 tumors by flow cytometry after 7 days of dosing; conditions: for percentage of dendritic cells (CD45, CD11c positive) in tumors: FIG. 7b; for regulatory T cells (CD45, CD4, FoxP3, CD25 positive) in tumors: versus vehicle, FIG. 7a; for percentage of activated T cells (CD45, CD3, CD8) by CD25 expression in tumors: FIG. 7c
Experimental: The immune cell composition of Compound X (the compound as described in Example 15, above) as a single agent and combined with a mouse anti-PD1 antibody was evaluated in the CT-26 mouse colon adenocarcinoma model grown in BALB/c mice. Mice were inoculated subcutaneously in the right flank with 5×10^5 tumor cells. When tumors reached an average size of 85 mm^3 dosing was initiated. The dosing regimens in the 4 separate cohorts comprising 10 mice each are listed as follows:
After dosing animals for 7 days, tumors were resected and used to prepare single cell suspensions. Live cells representing tumor and immune cells were stained with cocktails of antibodies targeting multiple immune cell markers (anti-CD45, anti-CD3, anti-CD4, anti-CD8, anti-CD25, anti-FoxP3, anti-PD-1, anti-CD11c) conjugated to different fluorescent tags. The stained cells were fixed in 4% paraformaldehyde and quantified using a multi-color flow cytometer (Fortessa). The data was analyzed with FloJo software.

[6] = Compound X 15 mg/kg BID in combination with anti-CTLA4
[7] = single agent: Compound X 15 mg/kg BID x7 days po or anti-PD-1 10 mg/kg Q3D x3 ip

C[C@H](NC(=O)c1cc(Cl)cnc1Oc1cccc(F)c1)c1ccc(C(=O)O)cc1 [Compound X]
mice still alive 99 days after tumor inoculation ([1]; Compound X 15 mg/kg BID in combination with anti-PD-1): 5 out of 10 | growth kinetics after treatment was discontinued ([1]; Compound X 15 mg/kg BID in combination with anti-PD-1, FIG. 1): decreased growth kinetics relative to anti-PD-1 | survival after treatment was discontinued ([1]; Compound X 15 mg/kg BID in combination with anti-PD-1, FIG. 2): improved survival | tumor free mice 99 days after tumor inoculation ([1]; Compound X 15 mg/kg BID in combination with anti-PD-1, of 10 mice): 4 | tumor growth kinetics during the treatment period ([1]; Compound X 15 mg/kg BID p.o. combined with anti-PD-1 10 mg/kg i.p.): not notably different mice treated with single agent anti-PD-1 | tumor growth kinetics during the period of dosing ([1]; Compound X 15 mg/kg BID p.o., single agent, FIG. 1): not notably different from the vehicle treated mice | tumor growth kinetics during the treatment period ([1]; Compound X 15 mg/kg QD p.o. combined with anti-PD-1 10 mg/kg i.p.): not notably different mice treated with single agent anti-PD-1 | tumor growth kinetics during the period of dosing ([1]; Compound X 15 mg/kg QD p.o., single agent, FIG. 1): not notably different from the vehicle treated mice | mice still alive and tumor free 99 days after tumor inoculation ([1]; single agent): 1 out of 10 | tumor growth kinetics during the period of dosing ([2]; Compound X 15 mg/kg BID combined with anti-PD1 10 mg/kg BIW ip, versus single agents): lower than mice treated with either single agent | tumor growth kinetics during the period of dosing ([2]; single agent: Compound X 15 mg/kg BID po or anti-PD1 10 mg/kg BIW ip, versus vehicle): less than that of the vehicle group | mice still alive 47 days after tumor inoculation [3, 6]: 7 of 10 | mice still alive at the end of the study 55 days after tumor inoculation [3, 6]: 3 of 10 | survival rate after treatment was discontinued ([3]; Compound X 15 mg/kg BID in combination with anti-CTLA4, FIG. 4): improved survival rate relative to either single agent alone | tumor growth kinetics during the period of dosing ([3]; Compound X and anti-CTLA4 combined, versus either agent alone): decreased relative to either agent when dosed alone | mice alive 47 days after tumor inoculation ([3]; single agent alone): none | tumor growth kinetics during the period of dosing ([3]; single agent: Compound X 15 mg/kg BID or anti-CTLA4, versus vehicle): decreased relative to the vehicle treated mice | tumor growth kinetics during the period of dosing ([4]; Compound X 15 mg/kg BID combined with anti-PD1 10 mg/kg BIW ip): lower than mice treated with either single agent | tumor growth kinetics during the period of dosing ([4]; Compound X 15 mg/kg BID po, single agent): less than that of the vehicle group and anti-PD1 when dosed alone | percentage of dendritic cells (CD45, CD11c positive) in tumors ([5]; Compound X 15 mg/kg BID dosed with anti-PD-1 10 mg/kg Q3D): increased percentage | regulatory T cells (CD45, CD4, FoxP3, CD25 positive) in tumors ([5]; combination of Compound X 15 mg/kg BID and anti-PD-1 10 mg/kg Q3D): significant decrease | percentage of activated T cells (CD45, CD3, CD8) by CD25 expression in tumors ([5]; combination of Compound X 15 mg/kg BID with anti-PD-1 10 mg/kg Q3D): increased percentage | percentage of activated T cells (CD45, CD3, CD8) by CD25 expression in tumors ([5]; either agent dosed alone): did not | percentage of dendritic cells (CD45, CD11c positive) in tumors [5, 7]: increased percentage | regulatory T cells (CD45, CD4, FoxP3, CD25 positive) in tumors [5, 7]: significant decrease
